Assay results as given in PMC10698177, “Discovery of type II polyketide synthase-like enzymes for the biosynthesis of cispentacin” (Nature Communications, 2023).

Assays:
Type in all cases: biochemical
AmcH [1] = target: T1, AmcH (Streptomyces novoguineensis, UniProt A0A4Y5QVH7); experiment: LC-ESI-HRMS of acyl-AmcB; details: 200 uM AmcB, 0.2 uM AmcH, 1 mM 2-OG, 5 mM ATP, 25 mM MgCl2, 50 mM Tris-HCl pH 8.0, 30 °C, 1 h
T1 construct: AmcH purified from Streptomyces albus G153; AmcB (holo form, with phosphopantetheine arm) from E. coli BL21(DE3), pET26b(+), is the acyl acceptor; with Acyl carrier protein AmcB
T1 sequence (A0A4Y5QVH7 1-460): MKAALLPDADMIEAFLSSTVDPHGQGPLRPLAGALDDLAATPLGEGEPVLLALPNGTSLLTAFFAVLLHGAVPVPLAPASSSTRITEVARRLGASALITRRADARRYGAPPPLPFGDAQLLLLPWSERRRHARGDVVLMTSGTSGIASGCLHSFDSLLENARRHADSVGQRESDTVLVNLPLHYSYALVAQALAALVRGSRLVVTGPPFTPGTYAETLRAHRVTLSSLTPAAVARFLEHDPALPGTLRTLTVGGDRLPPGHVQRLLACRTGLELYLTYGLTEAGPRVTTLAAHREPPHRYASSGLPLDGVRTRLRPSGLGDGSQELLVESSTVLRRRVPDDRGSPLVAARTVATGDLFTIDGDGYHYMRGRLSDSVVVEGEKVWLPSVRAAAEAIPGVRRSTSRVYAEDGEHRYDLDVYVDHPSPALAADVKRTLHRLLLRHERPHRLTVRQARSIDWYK

AmcH [2] = target: T1, AmcH; experiment: HPLC of ATP consumption and AMP formation; details: 500 uM AmcB, 1 uM AmcH, 1 mM 2-OG, 2 mM ATP, 25 mM MgCl2, pH 8.0, 30 °C
eFabI = target: T2, eFabI (Escherichia coli, UniProt P0AEK4); experiment: PPant ejection assay / LC-HRMS of 4-AmcB formation; details: 1 mM NADH, 200 uM gel-filtered 3-AmcB, 8 uM enzyme, 20 mM Tris-HCl pH 8.0, 150 mM NaCl, 30 °C, 1 h
T2 construct: gene fabI; C-terminal His tag, pET26b(+), E. coli BL21(DE3)
T2 sequence (P0AEK4 2-262): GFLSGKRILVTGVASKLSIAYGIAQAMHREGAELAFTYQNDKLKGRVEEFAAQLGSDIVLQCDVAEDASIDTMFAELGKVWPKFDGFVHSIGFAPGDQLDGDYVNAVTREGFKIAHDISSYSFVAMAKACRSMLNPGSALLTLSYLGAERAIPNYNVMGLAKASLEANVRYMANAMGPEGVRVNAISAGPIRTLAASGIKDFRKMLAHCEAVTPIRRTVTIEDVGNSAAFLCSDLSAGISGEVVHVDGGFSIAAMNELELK

sFabI = target: T3, sFabI (Streptomyces albidoflavus, UniProt D6BBL6); experiment: PPant ejection assay / LC-HRMS of 4-AmcB formation; details: 1 mM NADH, 200 uM gel-filtered 3-AmcB, 8 uM enzyme, 20 mM Tris-HCl pH 8.0, 150 mM NaCl, 30 °C, 1 h
T3 construct: gene fabI; C-terminal His tag, pET26b(+), E. coli BL21(DE3)
T3 sequence (D6BBL6 1-259): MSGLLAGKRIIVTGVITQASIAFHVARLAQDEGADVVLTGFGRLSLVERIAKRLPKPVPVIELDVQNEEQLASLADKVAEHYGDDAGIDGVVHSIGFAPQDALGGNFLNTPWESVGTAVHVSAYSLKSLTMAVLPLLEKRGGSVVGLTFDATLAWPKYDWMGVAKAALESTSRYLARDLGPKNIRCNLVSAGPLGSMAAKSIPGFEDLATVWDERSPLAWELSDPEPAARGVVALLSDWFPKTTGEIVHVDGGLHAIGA

O=C(O)CCC(=O)C(=O)O [2-OG]
LC-ESI-HRMS of acyl-AmcB (AmcH [1]): AmcH loads only 2-OG onto AmcB to form 2-oxoglutaryl-AmcB

Nc1ncnc2c1ncn2[C@@H]1O[C@H](COP(=O)(O)OP(=O)(O)OP(=O)(O)O)[C@@H](O)[C@H]1O [ATP]
HPLC of ATP consumption and AMP formation (AmcH [2]): consumption of ATP and the generation of AMP occurred in both AmcB- and 2-OG-dependent manners

NC(=O)C1=CN([C@@H]2O[C@H](COP(=O)(O)OP(=O)(O)OC[C@H]3O[C@@H](n4cnc5c(N)ncnc54)[C@H](O)[C@@H]3O)[C@@H](O)[C@H]2O)C=CC1 [NADH]
PPant ejection assay / LC-HRMS of 4-AmcB formation (eFabI): eFabI and sFabI specifically catalyze the reduction of 3-AmcB to yield 4-AmcB
PPant ejection assay / LC-HRMS of 4-AmcB formation (sFabI): eFabI and sFabI specifically catalyze the reduction of 3-AmcB to yield 4-AmcB
